The numbers were not newly measured in patent US20230364004A1, “STABLE COMPOSITIONS CONTAINING A CANNABINOID” (ANGROW COMPANY LIMITED, priority 2022, published 2023), which cites them from elsewhere.

Each structure is given as a SMILES string.

The conditions of this data set: within 24 hours, simulated physiological condition (PH 7.4 and 37° C.).

Turning to `C=C(C)[C@@H]1CCC(C)=C[C@H]1c1c(O)cc(CCCCC)cc1O` [CBD, cannabidiol], the CBD degraded was 10%.
